Results as given in patent publication US8242250B2, “Nucleic acid molecule encoding a cystine knot polypeptide” (The University of Queensland, priority 1999, dated 2012).

Columns and labels:
[1] = system: Helicoverpa armigera larvae; experiment: Bioassay with cotton leaf artificial diet, growth and development of larvae; format: in vivo
Method: Helicoverpa armigera larvae were raised on an artificial diet based on cotton leaves. One hundred ml of cotton leaf artificial diet was composed of 3 g cotton leaf powder (see below), 2 g Tortula yeast, 2.4 g wheat germ, 3.2 g ascorbic acid, 0.08 g sorbic acid, 0.16 g paraben (mould inhibitor), 0.08 ml linseed oil, 0.16 ml wheatgerm oil, 0.028 g ampicillin, 0.028 g streptomycin, 3.2 g agar and 80 ml water. Cotton leaf powder was prepared from freshly picked young, healthy cotton leaves which had been rapidly frozen in liquid nitrogen and freeze dried before they were ground to a fine powder using a mortar and pestle. Test diets contained the cyclic Kalata B1 peptide at 0.15% w/v of diet (high kalata) or 0.03% w/v of diet (low kalata), linear peptide (backbone chain opened between residues 7 and 8 [see FIG. 1A] at 0.15% w/v of diet. The control diet contained casein at 0.15% w/v of diet. The diet was mixed and dispensed as described for the Haricot bean diet and the bioassay was conducted in the same manner.
Newly hatched larvae were fed on an artificial diet based on cotton leaves, with and without added Kalata B1. […] Larvae on the Kalata B1 diet were about 18% of the size of those fed on the control diet.
Kalata peptides isolated from leaves are normally cyclic. The inventors sought to determine whether cyclization was essential for biological activity against insects. Newly hatched H. armigera larvae were added to an artificial diet based on cotton leaves which had been supplemented with cyclic Kalata B1 at either 0.15% w/v of diet or 0.03% w/v of diet. Growth of these larvae was compared to growth of larvae on diet with no added peptide or with added linear Kalata B1 at 0.15% w/v of the diet. Linear Kalata B1 is identical to cyclic Kalata B1 except the backbone chain is open between residues 7 and 8 [see FIG. 1A].

[2] = system: Helicoverpa punctigera larvae; experiment: Bioassay with Haricot bean artificial diet, growth and development of larvae; format: in vivo
Method: Helicoverpa punctigera larvae were raised on artificial diets based on Haricot beans (Teakle et al. (13)). One litre of diet was composed of 234 g Haricot beans, 14 g agar, 700 ml water, 35 g Tortula yeast, 50 g wheatgerm, 3.5 g ascorbic acid, 1.1 g sorbic acid, 2.2 g p-hydroxybenzoic acid methyl ester, 0.2 g ampicillin, 0.2 g streptomycin, 16 mg prochloraz. The beans were soaked overnight in water, drained and homogenized to a fine paste. Wheatgerm, yeast and 300 ml of water were added. The agar was dissolved in 400 ml of boiling water and added to the mixture. The mixture was cooled to 50° C. before the addition of the remaining ingredients. The blended diet was poured into trays and after setting was used immediately or stored at −20° C. for no longer than two weeks. The test diet was supplemented with the Kalata B1 peptide (0.825 μmol/g of diet). Twenty newly emerged neonates were added to each diet and mortality was recorded every two days. Weight gain was recorded at the sixth day and then every second day thereafter. The larvae were reared in 1.5 ml eppendorfs microfuge tubes (one larva/tube) until day eight when they were transferred to individual plastic containers with lids (Solo (trademark) plastic portion cups, 28 ml) at the eight day. Larvae were fed small amounts of diet (40 mg) initially that was replaced as required to provide a continuous supply. The larvae were kept in a temperature controlled room at 25±1° C., 16:8 (L:D).
Most larvae on the control diet, however, had achieved fifth instar (FIGS. 13B, C).

In the case of “Kalata B1: 29 amino acid peptide with cyclic backbone and cystine knot from O. affinis (SEQ ID NO: 41) (cyclo(VCGETCVGGTCNTPGCTCSWPVCTRNGLP); disulfide (positions not given here); also: cystine knot, pairings not given here; listed as Oldenlandia affinis)”, the “size of larvae relative to those fed on the control diet” value ([1]; cotton leaf diet with added Kalata B1, 12 days) was “about 18%”, the “instar stage of development reached after 12 days” value ([1]; cotton leaf diet, 12 days, control larvae at third to fourth instar) was “failed to progress past the first instar stage of development” and the “effect on growth compared with the linear form” value ([1]; cyclic form at one fifth the concentration of the linear form (0.03% vs 0.15% w/v of diet)) was “more significant effect on growth”. For the same substance, the “instar stage of development reached by survivors after 16 days” value ([2]; 0.825 μmol/g of diet, 16 days, most control larvae at fifth instar) was “none of the 12 survivors had progressed past the first instar stage of development”, the “larvae that failed to survive past day 16” value ([2]; 0.825 μmol/g of diet, day 16) was 50% and the “mortality in the first six days” value ([2]; 0.825 μmol/g of diet, first six days, twenty neonates) was “No mortality”. The “size of larvae after 16 days on artificial diet” value ([2]; 16 days, control diet ~30 mm (FIG. 13C)) was ~5 mm and the “effect on the development of larvae” value ([2]; Haricot bean diet with peptide 0.825 μmol/g of diet) was “significant effect”.
